Values of other authors as cited in patent US20150190322A1, “COMPOSITION, METHOD AND KIT FOR ENHANCING HAIR” (PHARMA PATENT HOLDING INC., priority 2009, published 2015).

Conditions: in some patients, during use for reduction of intraocular pressure

## CC(C)OC(=O)CCC/C=C\C[C@@H]1[C@@H](CC[C@@H](O)CCc2ccccc2)[C@H](O)C[C@@H]1O [Latanoprost, isopropyl-(Z)-7[(1R, 2R, 3R, 5S)3,5-dihydroxy-2-[(3R)-3-hydroxy-5-phenylp-entyl]cyclopentyl]-5-heptenoate]
  pigmentation and growth of eyelashes: increasing pigmentation and growth of eyelashes
